Test results from BindingDB's records for patent US11547697 (Millennium Pharmaceuticals, 2023).

Legend:
Test in all cases: Inhibition Assay of PI3K
[1] = biological target: Phosphatidylinositol 4,5-bisphosphate 3-kinase catalytic subunit gamma isoform (Homo sapiens, UniProt P48736)
[2] = biological target: Phosphatidylinositol 4,5-bisphosphate 3-kinase catalytic subunit beta isoform (Homo sapiens, UniProt P42338)
[3] = biological target: T1, Phosphatidylinositol 4,5-bisphosphate 3-kinase catalytic subunit delta isoform (Homo sapiens, UniProt O00329)
T1 sequence (O00329 whole entry): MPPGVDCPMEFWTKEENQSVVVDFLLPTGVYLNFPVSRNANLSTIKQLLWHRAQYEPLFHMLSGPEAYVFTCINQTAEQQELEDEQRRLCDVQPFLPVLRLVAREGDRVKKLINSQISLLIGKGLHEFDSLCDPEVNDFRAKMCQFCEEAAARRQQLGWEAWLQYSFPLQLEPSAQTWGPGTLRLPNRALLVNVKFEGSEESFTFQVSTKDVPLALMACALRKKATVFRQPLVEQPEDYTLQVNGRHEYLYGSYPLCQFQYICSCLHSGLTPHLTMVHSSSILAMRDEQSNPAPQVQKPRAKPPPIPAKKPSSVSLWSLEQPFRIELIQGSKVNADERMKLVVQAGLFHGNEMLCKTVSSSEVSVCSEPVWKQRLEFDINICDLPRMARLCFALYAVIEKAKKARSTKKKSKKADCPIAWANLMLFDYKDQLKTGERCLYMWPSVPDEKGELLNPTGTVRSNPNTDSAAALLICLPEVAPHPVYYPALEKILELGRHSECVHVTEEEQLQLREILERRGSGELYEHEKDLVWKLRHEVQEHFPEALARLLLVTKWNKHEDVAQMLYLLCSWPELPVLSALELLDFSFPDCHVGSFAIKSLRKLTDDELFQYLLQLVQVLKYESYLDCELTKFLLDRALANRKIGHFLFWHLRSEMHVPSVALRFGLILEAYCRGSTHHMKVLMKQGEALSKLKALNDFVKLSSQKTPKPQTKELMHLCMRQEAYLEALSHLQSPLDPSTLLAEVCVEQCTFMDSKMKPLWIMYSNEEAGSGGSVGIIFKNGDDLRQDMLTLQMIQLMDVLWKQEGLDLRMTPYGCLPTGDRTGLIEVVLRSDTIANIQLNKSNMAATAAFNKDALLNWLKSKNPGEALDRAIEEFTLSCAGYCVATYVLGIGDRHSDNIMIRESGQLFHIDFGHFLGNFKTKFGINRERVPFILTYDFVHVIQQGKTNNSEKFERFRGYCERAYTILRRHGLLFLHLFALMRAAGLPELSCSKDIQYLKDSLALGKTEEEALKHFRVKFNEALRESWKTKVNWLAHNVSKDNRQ

Phosphatidylinositol 4,5-bisphosphate 3-kinase catalytic subunit beta isoform, sequence (P42338 whole entry, canonical isoform): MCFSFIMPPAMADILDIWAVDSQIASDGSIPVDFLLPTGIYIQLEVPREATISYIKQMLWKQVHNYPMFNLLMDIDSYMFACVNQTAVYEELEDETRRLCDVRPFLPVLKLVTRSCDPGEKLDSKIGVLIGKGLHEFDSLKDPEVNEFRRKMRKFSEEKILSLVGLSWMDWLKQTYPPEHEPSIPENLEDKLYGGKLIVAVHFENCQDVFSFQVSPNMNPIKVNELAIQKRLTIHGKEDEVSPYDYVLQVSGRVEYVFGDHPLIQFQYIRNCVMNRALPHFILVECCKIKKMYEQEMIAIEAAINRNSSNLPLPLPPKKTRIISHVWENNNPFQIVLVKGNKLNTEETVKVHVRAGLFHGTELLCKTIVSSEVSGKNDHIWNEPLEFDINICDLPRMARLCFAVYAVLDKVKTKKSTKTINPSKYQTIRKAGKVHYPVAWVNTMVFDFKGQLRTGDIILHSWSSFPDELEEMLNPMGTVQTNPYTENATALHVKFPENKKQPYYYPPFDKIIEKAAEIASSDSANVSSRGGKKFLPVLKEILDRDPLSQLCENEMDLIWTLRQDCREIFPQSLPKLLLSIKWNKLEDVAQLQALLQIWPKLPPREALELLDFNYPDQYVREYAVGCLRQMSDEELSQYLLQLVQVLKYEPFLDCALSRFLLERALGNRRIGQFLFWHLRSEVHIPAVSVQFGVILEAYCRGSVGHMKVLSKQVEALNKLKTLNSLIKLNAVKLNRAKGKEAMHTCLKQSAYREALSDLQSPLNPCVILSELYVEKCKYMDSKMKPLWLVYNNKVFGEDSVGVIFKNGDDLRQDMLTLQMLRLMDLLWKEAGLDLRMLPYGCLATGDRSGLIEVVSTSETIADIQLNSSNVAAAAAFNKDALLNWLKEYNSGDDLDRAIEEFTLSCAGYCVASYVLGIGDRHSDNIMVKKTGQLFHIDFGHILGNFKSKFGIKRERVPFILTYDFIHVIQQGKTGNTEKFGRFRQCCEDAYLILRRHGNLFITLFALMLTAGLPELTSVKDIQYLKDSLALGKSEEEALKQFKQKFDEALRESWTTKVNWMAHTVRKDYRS
Phosphatidylinositol 4,5-bisphosphate 3-kinase catalytic subunit gamma isoform, sequence (P48736 whole entry, canonical isoform): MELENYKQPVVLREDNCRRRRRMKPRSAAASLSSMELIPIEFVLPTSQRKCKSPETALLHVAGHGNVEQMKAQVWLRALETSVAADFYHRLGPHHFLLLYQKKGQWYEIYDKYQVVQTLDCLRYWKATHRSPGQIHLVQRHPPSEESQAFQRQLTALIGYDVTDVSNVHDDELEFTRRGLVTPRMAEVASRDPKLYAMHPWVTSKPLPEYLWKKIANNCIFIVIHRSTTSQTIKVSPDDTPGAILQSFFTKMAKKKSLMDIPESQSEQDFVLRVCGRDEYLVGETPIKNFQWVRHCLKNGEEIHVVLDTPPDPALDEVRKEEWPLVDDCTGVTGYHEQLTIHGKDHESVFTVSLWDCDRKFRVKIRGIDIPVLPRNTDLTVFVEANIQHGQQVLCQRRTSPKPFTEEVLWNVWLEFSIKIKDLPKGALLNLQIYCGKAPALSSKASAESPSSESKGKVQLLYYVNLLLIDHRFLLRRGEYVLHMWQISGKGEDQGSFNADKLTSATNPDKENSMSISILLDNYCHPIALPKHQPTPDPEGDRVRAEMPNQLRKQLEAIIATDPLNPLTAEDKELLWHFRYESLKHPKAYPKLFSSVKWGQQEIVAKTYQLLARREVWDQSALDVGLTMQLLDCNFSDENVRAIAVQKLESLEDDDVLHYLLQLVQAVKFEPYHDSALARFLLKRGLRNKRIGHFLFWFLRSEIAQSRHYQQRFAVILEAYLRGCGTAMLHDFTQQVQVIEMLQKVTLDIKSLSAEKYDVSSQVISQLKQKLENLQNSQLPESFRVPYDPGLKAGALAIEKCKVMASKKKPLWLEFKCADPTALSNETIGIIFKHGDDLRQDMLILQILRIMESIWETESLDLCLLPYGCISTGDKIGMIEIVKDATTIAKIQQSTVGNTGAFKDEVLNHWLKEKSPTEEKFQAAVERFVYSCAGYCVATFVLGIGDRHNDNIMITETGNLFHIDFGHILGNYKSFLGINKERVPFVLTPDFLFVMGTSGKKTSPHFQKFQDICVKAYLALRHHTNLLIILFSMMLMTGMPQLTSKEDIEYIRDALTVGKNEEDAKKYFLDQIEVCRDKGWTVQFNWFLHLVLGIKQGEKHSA

| SMILES | IC50 [1] | IC50 [2] | IC50 [3] |
| --- | --- | --- | --- |
| CN1CCN(C(=O)c2cnc3ccc(-c4ccc5oc(N)nc5c4)nn23)CC1 [US11547697, Compound 104] |  | > 10 µM | > 10 µM |
| Nc1nc2cc(-c3ccc4ncc(N5CCC(N)CC5)nc4c3)ccc2o1 [US11547697, Compound 168] | > 10 µM |  |  |
| CC(=O)N1CCN(C(=O)c2cnc3ccc(-c4ccc5oc(N)nc5c4)cn23)CC1 [US11547697, Compound 113] |  | > 10 µM | > 10 µM |
| Nc1nc2cc(-c3ccc4ncc(C(=O)N5CCS(=O)(=O)CC5)n4c3)ccc2o1 [US11547697, Compound 107] |  | > 10 µM | > 10 µM |
| C[C@@H]1CN(c2cnc3ccc(-c4ccc5oc(N)nc5c4)cc3n2)C[C@H](C)O1 [US11547697, Compound 132] |  | > 10 µM | > 10 µM |
| Cc1ccc(-c2cnc3ccc(-c4ccc5oc(N)nc5c4)cc3n2)cn1 [US11547697, Compound 194] |  | > 10 µM | > 10 µM |
| Nc1nc2cc(-c3ccc4ncn(C5CC5)c(=O)c4c3)ccc2o1 [US11547697, Compound 254] |  | > 10 µM | > 10 µM |
| Nc1nc2ccc(-c3ccc4ncc(N5CCOCC5)nc4c3)cc2s1 [US11547697, Compound 114] |  | > 10 µM | > 10 µM |
| Nc1noc2ccc(-c3ccc4nccc(-c5ccncc5)c4c3)cc12 [US11547697, Compound 18] |  | > 10 µM | > 10 µM |
| Nc1nc2cc(-c3ccc4ncc(N5CC(N6CCN(CC7CC7)CC6)C5)nc4c3)ccc2o1 [US11547697, Compound 335] | > 10 µM |  |  |
| Cc1ccn(C2CCN(C(=O)c3cnc4ccc(-c5ccc6oc(N)nc6c5)cn34)CC2)n1 [US11547697, Compound 297] |  | > 10 µM | > 10 µM |
| CN1CCC(N(C)C(=O)c2cnc3ccc(-c4ccc5oc(N)nc5c4)cn23)CC1 [US11547697, Compound 165] | > 10 µM |  |  |
| Nc1nc2cc(-c3ccc4ncc(C(=O)NC5CCC(O)CC5)n4c3)ccc2o1 (configuration not stated) [US11547697, Compound 143] | < 0.1 µM |  |  |
| CCN1CCN(C(=O)c2cnc3ccc(-c4ccc5oc(N)nc5c4)cn23)CC1 [US11547697, Compound 141] |  | > 10 µM | > 10 µM |
| Nc1nc2cc(-c3c[nH]c4nccc(-c5ccncc5)c34)ccc2o1 [US11547697, Compound 25] |  | > 10 µM | > 10 µM |
| CNC(=O)CN1CCN(c2cnc3ccc(-c4ccc5oc(N)nc5c4)cc3n2)CC1 [US11547697, Compound 120] | > 10 µM |  |  |
| Nc1nc2cc(-c3ccc4ncc(-c5cccnc5)nc4c3)ccc2o1 [US11547697, Compound 76] |  | > 10 µM | > 10 µM |

| SMILES | IC50 [1] | IC50 [2] | IC50 [3] |
| --- | --- | --- | --- |
| CC(=O)Nc1nc2ccc(-c3ccc4nccc(-c5ccncc5)c4c3)cc2s1 [US11547697, Compound 2] |  | > 10 µM | > 10 µM |
| Nc1nc2cc(-c3ccc4ncc(N5CCCCC5)nc4c3)ccc2o1 [US11547697, Compound 175] |  | > 10 µM | > 10 µM |
| Nc1nc2cc(-c3ccc4ncc(N5CCS(=O)(=O)CC5)nc4c3)ccc2o1 [US11547697, Compound 98] |  | > 10 µM | > 10 µM |
| C[C@H]1CN(C2CN(c3cnc4ccc(-c5ccc6oc(N)nc6c5)cc4n3)C2)CCN1 [US11547697, Compound 350] | > 10 µM |  |  |
| Nc1nc2cc(-c3ccc4ncc(C(=O)NCCN5CCCC5)n4c3)ccc2o1 [US11547697, Compound 296] | > 10 µM |  |  |
| Cc1cn(-c2cnc3ccc(-c4ccc5oc(N)nc5c4)cc3n2)cn1 [US11547697, Compound 177] |  | > 10 µM | > 10 µM |
| CC(C)(N)C(=O)N1CCN(c2cnc3ccc(-c4ccc5oc(N)nc5c4)cc3n2)CC1 [US11547697, Compound 213] | > 10 µM |  |  |
| NC(=O)[C@@H]1CCCN1C(=O)C1CN(c2cnc3ccc(-c4ccc5oc(N)nc5c4)cc3n2)C1 [US11547697, Compound 283] |  | > 10 µM | > 10 µM |
| CC(C)n1cnc2ccc(-c3ccc4oc(N)nc4c3)cc2c1=O [US11547697, Compound 206] |  | > 10 µM | > 10 µM |
| Nc1nc2cc(-c3ccc4ncc(C(=O)N5CCC(O)CC5)n4c3)ccc2o1 [US11547697, Compound 162] |  | > 10 µM | > 10 µM |
| NC(=O)[C@H]1CCCN1C(=O)c1cnc2ccc(-c3ccc4oc(N)nc4c3)cn12 [US11547697, Compound 260] |  | > 10 µM | > 10 µM |
| N#Cc1cnc2ccc(-c3ccc4oc(N)nc4c3)cc2c1 [US11547697, Compound 93] |  | > 10 µM | > 10 µM |
| Cc1ccn(C2CCN(c3cnc4ccc(-c5ccc6oc(N)nc6c5)cc4n3)CC2)n1 [US11547697, Compound 223] |  | > 10 µM | > 10 µM |
| CN1CCC(n2cnc3ccc(-c4ccc5oc(N)nc5c4)cc3c2=O)CC1 [US11547697, Compound 36] | > 10 µM |  |  |
| Nc1nc2cc(-c3ccc4ncn(CCCN5CCCC5)c(=O)c4c3)ccc2o1 [US11547697, Compound 271] | > 10 µM |  |  |
| C[C@@H]1CN(C(=O)c2cnc3ccc(-c4ccc5oc(N)nc5c4)cn23)C[C@H](C)O1 [US11547697, Compound 106] |  | > 10 µM | > 10 µM |

Results, then the compound that gave them:

| IC50 [1] | IC50 [2] | IC50 [3] | SMILES |
| --- | --- | --- | --- |
| > 10 µM |  |  | Cc1c(-c2ccc3oc(N)nc3c2)ccc2ncc(N3CCN[C@@H](C)C3)nc12 [US11547697, Compound 374] |
|  | > 10 µM | > 10 µM | Nc1nc2cc(-c3ccc4ncc(C(=O)N5CCC6(C5)OCCO6)n4c3)ccc2o1 [US11547697, Compound 499] |
|  | > 10 µM | > 10 µM | O=C(c1cnc2ccc(-c3cccc(NS(=O)(=O)c4ccccc4)c3)cn12)N1CCOCC1 [US11547697, Compound 453] |
| > 10 µM |  |  | CN1CCC(n2cnc3ccc(-c4cnc(Cl)c(NS(C)(=O)=O)c4)cc3c2=O)CC1 [US11547697, Compound 526] |
|  | > 10 µM | > 10 µM | COc1ccc(-c2ccc3ncc(C(=O)N4CCOCC4)n3c2)cc1NS(=O)(=O)c1ccccc1 [US11547697, Compound 455] |
|  | > 10 µM | > 10 µM | Nc1nc2cc(-c3ccc4ncc(C(=O)N5CC(F)(F)C5)n4c3)ccc2o1 [US11547697, Compound 473] |
|  | > 10 µM | > 10 µM | Nc1nc2cc(-c3ccc4ncc(C(=O)N5CC[C@H](F)C5)n4c3)ccc2o1 [US11547697, Compound 476] |
|  | > 10 µM | > 10 µM | Nc1nc2cc(-c3ccc4ncc(N5CCN(CC(F)(F)F)CC5)nc4c3)ccc2o1 [US11547697, Compound 395] |
| > 10 µM |  |  | CN1CCN([C@@H]2CCN(c3cnc4ccc(-c5ccc6oc(N)nc6c5)cc4n3)C2)CC1 [US11547697, Compound 379] |
|  | > 10 µM | > 10 µM | Cc1c(-c2ccc3oc(N)nc3c2)ccc2ncc(N3CC(N4CCNCC4)C3)nc12 [US11547697, Compound 386] |
|  | > 10 µM | > 10 µM | Cc1cc(-c2ccc3oc(N)nc3c2)cn2c(C(=O)N3CCOCC3)cnc12 [US11547697, Compound 448] |
|  | > 10 µM | > 10 µM | Nc1nc2cc(-c3ccc4ncc(C(=O)N5CCC(F)CC5)n4c3)ccc2o1 [US11547697, Compound 503] |
|  | > 10 µM | > 10 µM | CC1(C)CN(C(=O)c2cnc3ccc(-c4ccc5oc(N)nc5c4)cn23)CCO1 [US11547697, Compound 513] |
|  | > 10 µM | > 10 µM | Nc1nc2cc(-c3ccc4ncc(C(=O)N5CCC(F)(F)C5)n4c3)ccc2o1 [US11547697, Compound 471] |
| > 10 µM |  |  | CC1(C)CN(c2cnc3ccc(-c4ccc5oc(N)nc5c4)cc3n2)CCN1 [US11547697, Compound 336] |
|  | > 10 µM | > 10 µM | Nc1nc2cc(-c3ccc4ncc(C(=O)N5CCC(F)(F)CC5)n4c3)ccc2o1 [US11547697, Compound 501] |
|  | > 10 µM | > 10 µM | Nc1nc2cc(-c3ccc4ncc(C(=O)N5CC[C@H](N6CCOCC6)C5)n4c3)ccc2o1 [US11547697, Compound 465] |
|  | > 10 µM | > 10 µM | CO[C@@H]1CCN(C(=O)c2cnc3ccc(-c4ccc5oc(N)nc5c4)cn23)C1 [US11547697, Compound 464] |
|  | > 10 µM | > 10 µM | O=C(c1cnc2ccc(-c3ccc(Cl)c(NS(=O)(=O)c4ccccc4)c3)cn12)N1CCOCC1 [US11547697, Compound 459] |
|  | > 10 µM | > 10 µM | Nc1nc2cc(-c3ccc4ncc(N5CCC(n6cccn6)CC5)nc4c3)ccc2o1 [US11547697, Compound 337] |
